In the NIST ThermoML archive (doi:10.1016/j.jct.2007.05.011):
± gives the expanded uncertainty stated by the source.

Assays:
[1] = xn = mol fraction of the nth substance listed; conditions: 101 kPa, Liquid, x1 = 1; for mass density: Vibrating tube method
[2] = 101 kPa, Liquid; for mass density: Vibrating tube method

**Q.** Which results are given for CO [methanol] + NCCO.O=CO?
**A.** mass density ([1]; 288.15 K): 795.775 ± 30 kg/m3; speed of sound ([1]; 288.15 K): 1134.5 ± 6.2 m/s; mass density ([1]; 290.65 K): 793.495 ± 30 kg/m3; speed of sound ([1]; 290.65 K): 1126.2 ± 6.1 m/s; mass density ([1]; 293.15 K): 791.149 ± 30 kg/m3; speed of sound ([1]; 293.15 K): 1118 ± 6.1 m/s; mass density ([1]; 295.65 K): 788.811 ± 30 kg/m3; speed of sound ([1]; 295.65 K): 1109.8 ± 6.1 m/s; mass density ([1]; 298.15 K): 786.463 ± 30 kg/m3; speed of sound ([1]; 298.15 K): 1101.6 ± 6 m/s; mass density ([1]; 300.65 K): 784.102 ± 30 kg/m3; speed of sound ([1]; 300.65 K): 1093.4 ± 6 m/s; mass density ([1]; 303.15 K): 781.764 ± 30 kg/m3; speed of sound ([1]; 303.15 K): 1085.5 ± 6 m/s; mass density ([1]; 305.65 K): 779.385 ± 30 kg/m3; speed of sound ([1]; 305.65 K): 1077.3 ± 5.9 m/s; mass density ([1]; 308.15 K): 777.026 ± 30 kg/m3; speed of sound ([1]; 308.15 K): 1069.2 ± 5.9 m/s; mass density ([1]; 310.65 K): 774.659 ± 30 kg/m3; speed of sound ([1]; 310.65 K): 1061.1 ± 5.9 m/s; mass density ([1]; 313.15 K): 772.261 ± 30 kg/m3; speed of sound ([1]; 313.15 K): 1052.9 ± 5.8 m/s; mass density ([1]; 315.65 K): 769.86 ± 30 kg/m3; speed of sound ([1]; 315.65 K): 1044.9 ± 5.8 m/s; mass density ([1]; 318.15 K): 767.541 ± 30 kg/m3; speed of sound ([1]; 318.15 K): 1036.7 ± 5.8 m/s; mass density ([1]; 320.65 K): 765.074 ± 30 kg/m3; speed of sound ([1]; 320.65 K): 1028.6 ± 5.8 m/s; mass density ([1]; 323.15 K): 762.738 ± 30 kg/m3; speed of sound ([1]; 323.15 K): 1020.5 ± 5.7 m/s

**Q.** Which results are given for CO [methanol]?
**A.** speed of sound ([2]; 288.15 K): 1134.5 ± 6.2 m/s; mass density ([2]; 288.15 K): 795.775 ± 30 kg/m3; speed of sound ([2]; 290.65 K): 1126.2 ± 6.1 m/s; mass density ([2]; 290.65 K): 793.495 ± 30 kg/m3; speed of sound ([2]; 293.15 K): 1118 ± 6.1 m/s; mass density ([2]; 293.15 K): 791.149 ± 30 kg/m3; speed of sound ([2]; 295.65 K): 1109.8 ± 6.1 m/s; mass density ([2]; 295.65 K): 788.811 ± 30 kg/m3; speed of sound ([2]; 298.15 K): 1101.6 ± 6 m/s; mass density ([2]; 298.15 K): 786.463 ± 30 kg/m3; speed of sound ([2]; 300.65 K): 1093.4 ± 6 m/s; mass density ([2]; 300.65 K): 784.102 ± 30 kg/m3; speed of sound ([2]; 303.15 K): 1085.5 ± 6 m/s; mass density ([2]; 303.15 K): 781.764 ± 30 kg/m3; speed of sound ([2]; 305.65 K): 1077.3 ± 5.9 m/s; mass density ([2]; 305.65 K): 779.385 ± 30 kg/m3; speed of sound ([2]; 308.15 K): 1069.2 ± 5.9 m/s; mass density ([2]; 308.15 K): 777.026 ± 30 kg/m3; speed of sound ([2]; 310.65 K): 1061.1 ± 5.9 m/s; mass density ([2]; 310.65 K): 774.659 ± 30 kg/m3; speed of sound ([2]; 313.15 K): 1052.9 ± 5.8 m/s; mass density ([2]; 313.15 K): 772.261 ± 30 kg/m3; speed of sound ([2]; 315.65 K): 1044.9 ± 5.8 m/s; mass density ([2]; 315.65 K): 769.86 ± 30 kg/m3; speed of sound ([2]; 318.15 K): 1036.7 ± 5.8 m/s; mass density ([2]; 318.15 K): 767.541 ± 30 kg/m3; speed of sound ([2]; 320.65 K): 1028.6 ± 5.8 m/s; mass density ([2]; 320.65 K): 765.074 ± 30 kg/m3; speed of sound ([2]; 323.15 K): 1020.5 ± 5.7 m/s; mass density ([2]; 323.15 K): 762.738 ± 30 kg/m3

**Q.** Which results are given for O [water] + NCCO.O=CO?
**A.** mass density ([1]; 290.65 K): 998.68 ± 30 kg/m3; speed of sound ([1]; 290.65 K): 1474.7 ± 7.5 m/s; mass density ([1]; 295.65 K): 997.65 ± 30 kg/m3; speed of sound ([1]; 295.65 K): 1489.9 ± 7.6 m/s; mass density ([1]; 300.65 K): 996.37 ± 30 kg/m3; speed of sound ([1]; 300.65 K): 1503.4 ± 7.6 m/s; mass density ([1]; 305.65 K): 994.86 ± 30 kg/m3; speed of sound ([1]; 305.65 K): 1515.1 ± 7.7 m/s; mass density ([1]; 310.65 K): 993.15 ± 30 kg/m3; speed of sound ([1]; 310.65 K): 1525 ± 7.7 m/s; speed of sound ([1]; 313.15 K): 1529.3 ± 7.7 m/s; mass density ([1]; 315.65 K): 991.24 ± 30 kg/m3; speed of sound ([1]; 315.65 K): 1533.2 ± 7.7 m/s; speed of sound ([1]; 318.15 K): 1536.6 ± 7.8 m/s; mass density ([1]; 320.65 K): 989.15 ± 30 kg/m3; speed of sound ([1]; 320.65 K): 1539.6 ± 7.8 m/s; mass density ([1]; 323.15 K): 988.04 ± 30 kg/m3; speed of sound ([1]; 323.15 K): 1542.1 ± 7.8 m/s
